Test results taken from PubChem BioAssay (NCI).
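48-hour exposure; five concentrations; linearly interpolated endpoints. At the GI50, growth is halved. TGI is the concentration that stops growth completely.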

Columns and labels:
Assay in all cases: NCI tumour cell line growth inhibition, 48 h
KM12 colon = tested on: KM12 colon
EKVX NSCLC = tested on: EKVX NSCLC
IGROV1 ovarian = tested on: IGROV1 ovarian
NCI/ADR-RES ovarian = tested on: NCI/ADR-RES ovarian
SF-268 CNS = tested on: SF-268 CNS
SK-MEL-2 melanoma = tested on: SK-MEL-2 melanoma
TK-10 renal = tested on: TK-10 renal
HS 578T breast = tested on: HS 578T breast
OVCAR-4 ovarian = tested on: OVCAR-4 ovarian
SF-539 CNS = tested on: SF-539 CNS
MDA-MB-435 = tested on: MDA-MB-435
NCI-H522 lung = tested on: NCI-H522 lung
NCI-H460 lung = tested on: NCI-H460 lung
MALME-3M melanoma = tested on: MALME-3M melanoma
HOP-92 NSCLC = tested on: HOP-92 NSCLC
UACC-257 melanoma = tested on: UACC-257 melanoma
SNB-75 CNS = tested on: SNB-75 CNS
HT29 colon = tested on: HT29 colon
SK-MEL-5 melanoma = tested on: SK-MEL-5 melanoma
SR leukemia = tested on: SR leukemia
SN12C renal = tested on: SN12C renal
SF-295 CNS = tested on: SF-295 CNS
BT-549 breast = tested on: BT-549 breast
MOLT-4 leukemia = tested on: MOLT-4 leukemia
NCI-H226 lung = tested on: NCI-H226 lung
786-0 renal = tested on: 786-0 renal
RXF 393 renal = tested on: RXF 393 renal
CAKI-1 renal = tested on: CAKI-1 renal
HOP-62 NSCLC = tested on: HOP-62 NSCLC
M14 melanoma = tested on: M14 melanoma
K-562 leukemia = tested on: K-562 leukemia
RPMI-8226 leukemia = tested on: RPMI-8226 leukemia
OVCAR-5 ovarian = tested on: OVCAR-5 ovarian
SW-620 colon = tested on: SW-620 colon
OVCAR-8 ovarian = tested on: OVCAR-8 ovarian
A498 renal = tested on: A498 renal
SNB-19 CNS = tested on: SNB-19 CNS
CCRF-CEM leukemia = tested on: CCRF-CEM leukemia
PC-3 prostate = tested on: PC-3 prostate
HL-60(TB) leukemia = tested on: HL-60(TB) leukemia
SK-OV-3 ovarian = tested on: SK-OV-3 ovarian
COLO 205 colon = tested on: COLO 205 colon
HCC-2998 colon = tested on: HCC-2998 colon
ACHN renal = tested on: ACHN renal
SK-MEL-28 melanoma = tested on: SK-MEL-28 melanoma
UO-31 renal = tested on: UO-31 renal
OVCAR-3 ovarian = tested on: OVCAR-3 ovarian
HCT-15 colon = tested on: HCT-15 colon
U251 CNS = tested on: U251 CNS
HCT-116 colon = tested on: HCT-116 colon
DU-145 prostate = tested on: DU-145 prostate
MCF7 breast = tested on: MCF7 breast
A549 NSCLC = tested on: A549 NSCLC

## Cc1ccc2c(n1)C(=O)C(Cl)=C(Nc1cccc(C)c1C)C2=O
KM12 colon
  GI50: 1950 nM
  TGI: 4540 nM
EKVX NSCLC
  GI50: 1580 nM
  TGI: 3730 nM
IGROV1 ovarian
  GI50: 1680 nM
  TGI: 3720 nM
NCI/ADR-RES ovarian
  GI50: 1920 nM
  TGI: 6600 nM
SF-268 CNS
  GI50: 1610 nM
  TGI: 3480 nM
SK-MEL-2 melanoma
  GI50: 1910 nM
  TGI: 3840 nM
TK-10 renal
  GI50: 2470 nM
  TGI: 4200 nM
HS 578T breast
  GI50: 2210 nM
  TGI: 6230 nM
OVCAR-4 ovarian
  GI50: 1140 nM
  TGI: 2420 nM
SF-539 CNS
  GI50: 1670 nM
  TGI: 3160 nM
MDA-MB-435
  GI50: 1890 nM
  TGI: 3720 nM
NCI-H522 lung
  GI50: 1960 nM
  TGI: 4580 nM
NCI-H460 lung
  GI50: 2250 nM
  TGI: 5620 nM
MALME-3M melanoma
  GI50: 1830 nM
  TGI: 3300 nM
HOP-92 NSCLC
  GI50: 1980 nM
  TGI: 3950 nM
UACC-257 melanoma
  GI50: 1440 nM
  TGI: 2800 nM
SNB-75 CNS
  GI50: 1460 nM
  TGI: 2920 nM
HT29 colon
  GI50: 2680 nM
  TGI: 7160 nM
SK-MEL-5 melanoma
  GI50: 1620 nM
  TGI: 3020 nM
SR leukemia
  GI50: 600 nM
  TGI: 3210 nM
SN12C renal
  GI50: 1670 nM
  TGI: 4350 nM
SF-295 CNS
  GI50: 1840 nM
  TGI: 3390 nM
BT-549 breast
  GI50: 1580 nM
  TGI: 3040 nM
MOLT-4 leukemia
  GI50: 827 nM
  TGI: 3350 nM
NCI-H226 lung
  GI50: 1940 nM
  TGI: 4390 nM
786-0 renal
  GI50: 1900 nM
  TGI: 4080 nM
RXF 393 renal
  GI50: 1520 nM
  TGI: 2880 nM
CAKI-1 renal
  GI50: 1570 nM
  TGI: 3120 nM
HOP-62 NSCLC
  GI50: 1550 nM
  TGI: 2960 nM
M14 melanoma
  GI50: 1610 nM
  TGI: 3190 nM
K-562 leukemia
  GI50: 770 nM
  TGI: 3580 nM
RPMI-8226 leukemia
  GI50: 1350 nM
  TGI: 4120 nM
OVCAR-5 ovarian
  GI50: 2010 nM
  TGI: 3930 nM
SW-620 colon
  GI50: 2060 nM
  TGI: 4820 nM
OVCAR-8 ovarian
  GI50: 2020 nM
  TGI: 7410 nM
A498 renal
  GI50: 2230 nM
  TGI: 5190 nM
SNB-19 CNS
  GI50: 1920 nM
  TGI: 5080 nM
CCRF-CEM leukemia
  GI50: 1250 nM
  TGI: 5220 nM
PC-3 prostate
  GI50: 1430 nM
  TGI: 3480 nM
HL-60(TB) leukemia
  GI50: 1150 nM
  TGI: 3490 nM
SK-OV-3 ovarian
  GI50: 1590 nM
  TGI: 3640 nM
COLO 205 colon
  GI50: 2030 nM
  TGI: 4720 nM
HCC-2998 colon
  GI50: 1920 nM
  TGI: 3770 nM
ACHN renal
  GI50: 1620 nM
  TGI: 3190 nM
SK-MEL-28 melanoma
  GI50: 1930 nM
  TGI: 3700 nM
UO-31 renal
  GI50: 1460 nM
  TGI: 2950 nM
OVCAR-3 ovarian
  GI50: 372 nM
  TGI: 1400 nM
HCT-15 colon
  GI50: 1130 nM
  TGI: 2730 nM
U251 CNS
  GI50: 1550 nM
  TGI: 3080 nM
HCT-116 colon
  GI50: 871 nM
  TGI: 2600 nM
DU-145 prostate
  GI50: 1650 nM
  TGI: 3200 nM
MCF7 breast
  GI50: 1160 nM
  TGI: 2950 nM
A549 NSCLC
  GI50: 2150 nM
  TGI: 5000 nM
